# Measured values: patent US5693812A, “Polymorphic forms of an angiotensin II antagonist” (priority 1996, dated 1997)
# “And” between values parts separate entries of the source, which are not always exact repeats. Equal values may be shown once. “Also recorded” adds a separate entry of the source. Where a name gives a salt, the structure may show the parent alone.
# What was measured:
# Type in all cases: physicochemical
# [1] = Thermogravimetric analysis (TGA) weight loss / water content; details: for TG of the potassium salt: dried product, Example 1 Step K; for % Weight Loss (Δ 30-150° C. by TGA) / hydration state: potassium salt; for hydration state: TGA
# Experimental: (§1) The crystal forms were characterized and evaluated by measuring the heats of solution or solution calorimetry, solubility data, x-ray powder diffraction patterns (XRPD), differential scanning calorimetry (DSC) and thermogravimetric analysis (TGA). Heats of solution at 30° C. were obtained in the Setaram C-80 calvet calorimeter with sample size of 7-13 mg dissolved into 5 ml of 88% DMSO 12% water for a final concentration of 1.4-2.6 mg/ml. XRPD patterns were recorded using an automated Siemens X-ray diffractometer with copper tube K alpha radiation. DSC and TGA were conducted using a Perkin Elmer series 7 instrument with a scan rate of 10° C./min over the temperature range of 30°-300° C. Utilizing these techniques the thermodynamic stability of the polymorphs of 3-[2'-(N-benzoyl)sulfonamidobiphenyl-4-yl]methyl-5,7-dimethyl-2-ethyl-3H-imidazo[4,5-b]pyridine potassium salt was determined.
# Step K: Preparation of 3-[2'-(N-Benzyl)sulfonamidobiphenyl-4-yl]methyl-5,7-dimethyl-2-ethyl-3H-imidazo[4,5-b]pyridine potassium salt--(Forms I, Id and W) [drawing 13] In a 72-L four-necked flask fitted with an overhead stirrer and a reflux condenser, 3-[2'-(N-benzyl)sulfonamidobiphenyl-4-yl]methyl-5,7-dimethyl-2-ethyl-3H-imidazo[4,5-b]pyridine 1 (5.04 kg, 9.6 mol), methanol (14.5 L) and water (2.5 L) are mixed. The slurry is warmed to 62° C. under a nitrogen atmosphere and 1.94M potassium hydroxide (4.96 L, 9.61 mol) is added to the slurry at 62° C. over 1.5 hours to provide a homogeneous solution. Isopropyl acetate (13.83 L) is then added at 65° C. and the mixture is warmed to 70° C. The homogeneous solution is filtered at 70° C. to remove any particulates that are present. The filtrate is diluted with isopropyl acetate (1.3 L), methanol (0.6 L) and water (0.1 L). […] The homogeneous mixture is cooled to 52° C. over 2 hours, whereupon potassium salt seed of form "I" (140 g) is added. This mixture becomes cloudy after 30 min. The mixture is aged for 10 hours at 52° C. The white slurry is cooled to 48° C. over 1 hour and stirred for 3 hours. Finally, the crystallization mixture is cooled to 0° C. at a rate of 1° C./12.5 min. and aged for 2 hours at 0° C. […] The solid is centrifuged at 0° C. and displacement-washed with a mixture of 2:2:1 cold (0° C.) isopropyl acetate/methanol/water (5.65 L) followed by isopropyl acetate (2.3 L). The solid is semi-dried to a TG of 10-15% by spin drying. The mother liquors contain 21 wt % of 3-[2'-(N-benzyl)sulfonamidobiphenyl-4-yl]methyl-5,7-dimethyl-2-ethyl-3H-imidazo[4,5-b]pyridine potassium salt. At this stage, the crystal form of the product is form "W". The product is powdered by passing through a screen (size=12). The solid is dried by passing dry nitrogen over the solid under vacuum at 22° C. for 5 hours to yield 4.55 kg of 3-[2'-(N-benzyl)sulfonamidobiphenyl-4-yl]methyl-5,7-dimethyl-2-ethyl-3H-imidazo[4,5-b]pyridine potassium salt as the form "I" with a purity of 99.7% (assay-HClO4 titration) and TG of 7-10%. Generally, the wet cake consists of residual water, methanol and isopropyl acetate. The K-salt is considered dry when <0.05% methanol and isopropyl acetate are detected by ^1 H NMR. The product is further powdered by passing the solid through a Quadro Comil (model 197s, screen size=1143 mm round impeller) to yield 4.5 kg. The product is dried to a TG of 4.6-5.5% by the passage of dry nitrogen over the solid under vacuum at 22° C. After 10 hours, 4.24 kg (78%) of the potassium salt as the form "I" is obtained with a TG of […] (99.7 wt % by titration). The water content can be monitored by TG analysis. The TG of the potassium salt of form "I" is 4.6-5.5%. The crystal form is monitored by X-ray analysis. When the potassium salt is over dried, the crystal form converts to form "Id" (TG<4.6%). […]
# [2] = Hygroscopicity studies / exposure to humidity
# [3] = Crystal form stability on heating
# [4] = Heat of solution by solution calorimetry (Setaram C-80); details: for ΔH solution 88% DMSO/12% H2O / ΔH solution DMSO at 30° C. / thermodynamic stability: potassium salt; for thermodynamic stability: from heats of solution and equilibrium solubility
# Experimental: The heat of solution of different crystal forms of 3-[2'-(N-benzoyl)sulfonamidobiphenyl-4-yl]methyl-5,7-dimethyl-2-ethyl-3H-imidazo[4,5-b]pyridine potassium salt were studied at 30° C. The heat of solution is a measure of the crystal lattice energy. […] Heats of solution had to be conducted in a solvent which dissolved the samples quickly without conversion to another polymorph. This really limited solvents which could be used. Dimethylsulfoxide was chosen for this reason. The heats of solution therefore have contributions from the lattice energy of the solid as well as heat of dilution of lattice water in dimethylsulfoxide. The calorimeter therefore produces a complex signal that has an exothermic contribution from the water and an additional contribution from the energy required to dissolve the crystal. […] Additional heats of solution were determined in a mixed solvent system of 88% dimethylsulfoxide and 12% water. This system was used to minimize the contribution of moisture to the heat of solution.
# as §1, with “C.” for “C. Utilizing these techniques the thermodynamic stability of the polymorphs of 3-[2'-(N-benzoyl)sulfonamidobiphenyl-4-yl]methyl-5,7-dimethyl-2-ethyl-3H-imidazo[4,5-b]pyridine potassium salt was determined.”
# [5] = Equilibrium solubility in water at room temperature
# [6] = Crystal form stability in water (XRPD of remaining solid); details: room temperature, potassium salt
# Text: [13) S. R. Byre. "Solid State Chemistry of Drugs." Academic Press, New York, 1982.] […] Recrystallization of any of these lots from solvents like ethanol, methanol, isopropanol, acetone, etc. gave new crystal forms different from the original forms. […] Solubility in water at room temperature was one of these techniques. The equilibrium solubility in water, at room temperature for five polymorphs (Forms "B", "C", "D", "F", and "G") were the same (Table 1). When the remaining solids were filtered, air dried or vacuum dried overnight at room temperature the XRPD patterns had changed from the initial patterns and all were exactly the same. These experiments indicate that all of the crystal forms converted in water at room temperature to a new crystalline form designated […].
# The remaining form "I" solid after equilibrium solubility studies in water was removed by filtration and vacuum dried overnight at room temperature.
# After the discovery of form "I", form "D" could no longer be isolated in our laboratory. TGA studies indicate that form "I" of 3-[2'-(N-benzoyl)sulfonamidobiphenyl-4-yl]methyl-5,7-dimethyl-2-ethyl-3H-imidazo[4,5-b]pyridine potassium salt is a dihydrate (FIG. 4).
# [7] = Crystal form conversion in acetonitrile, with or without water (XRPD); details: overnight, room temperature, listed as D, potassium salt
# Text: Since all of the crystal forms of 3-[2'-(N-benzoyl)sulfonamidobiphenyl-4-yl]methyl-5,7-dimethyl-2-ethyl-3H-imidazo[4,5-b]pyridine potassium salt were changed to a single crystal form "D", in water, the effect of a non-aqueous solvent was studied. 3-[2'-(N-benzoyl)sulfonamidobiphenyl-4-yl]methyl-5,7-dimethyl-2-ethyl-3H-imidazo[4,5-b]pyridine potassium salt, Forms "A", "B", "C", and "D" were stirred overnight at room temperature in acetonitrile. The remaining solids were filtered and then vacuum dried overnight at room temperature. The crystallinity of the solids was examined by XRPD spectroscopy.
# All of the crystal forms were converted to a single crystal form ("D") in water, but in acetonitrile to two different crystal forms. […] To explore the role of water in the above experiments, 3-[2'-(N-benzoyl)sulfonamidobiphenyl-4-yl]methyl-5,7-dimethyl-2-ethyl-3H-imidazo[4,5-b]pyridine potassium salt, form "C" (an anhydrous crystal form) was this time suspended in acetonitrile with added water (water was 10% of the solid weight). As a control experiment Form "C" was also suspended in acetonitrile with no added water. The samples were shaken overnight at room temperature. The remaining solids were filtered and vacuum dried overnight at room temperature.
smiles,measurement,setting,value
"CCc1nc2c(C)cc(C)nc2n1Cc1ccc(-c2ccccc2S(=O)(=O)NC(=O)c2ccccc2)cc1 [Form Id, 3-[2'-(N-benzoyl)sulfonamidobiphenyl-4-yl]methyl-5,7-dimethyl-2-ethyl-3H-imidazo[4,5-b]pyridine potassium salt]",TG of the potassium salt,[1]; listed as Id,< 4.6%
same,reconversion upon exposure to ambient humidity,[2]; ambient humidity,"reconverted to form ""I"""
"CCc1nc2c(C)cc(C)nc2n1Cc1ccc(-c2ccccc2S(=O)(=O)NC(=O)c2ccccc2)cc1 [Form I, 3-[2'-(N-benzoyl)sulfonamidobiphenyl-4-yl]methyl-5,7-dimethyl-2-ethyl-3H-imidazo[4,5-b]pyridine potassium salt]",crystal form after heating to about 216° C.,[3]; about 216° C.,converted to form H
same,ΔH solution 88% DMSO/12% H2O,"[4]; 30° C., listed as I",-25.68 ± 2.67 J/g
same,"heat of solution, ranking",[4]; 88% dimethylsulfoxide and 12% water,most endothermic
same,ΔH solution DMSO at 30° C.,"[4]; 30° C., listed as I",-8.56 ± 1.64 J/g
same,"heat of solution, ranking","[4]; dimethylsulfoxide, 30° C.",most endothermic
same,thermodynamic stability,[4]; listed as I,thermodynamically stable crystal form
same,% Weight Loss (Δ 30-150° C. by TGA),[1]; listed as I,4.1-5.9%
same,hydration state,[1]; listed as I,dihydrate
same,TG of the potassium salt,[1]; listed as I,4.6-5.5% and 6.1% and 7-10%
same,Solubility in water,"[5]; room temperature, Table I, potassium salt",8000 ± 400 µg/mL
same,solubility thermodynamic,"[5]; water, pH 7.8 printed for the other crystal forms",8000 µg/mL
same,crystal form after suspension in water,[6]; listed as I,remained unchanged
same,hygroscopicity,[2]; relative humidities of 47% and above,non-hygroscopic
"CCc1nc2c(C)cc(C)nc2n1Cc1ccc(-c2ccccc2S(=O)(=O)NC(=O)c2ccccc2)cc1 [Form D, 3-[2'-(N-benzoyl)sulfonamidobiphenyl-4-yl]methyl-5,7-dimethyl-2-ethyl-3H-imidazo[4,5-b]pyridine potassium salt]",crystal form after heating at 40° C. for 30 minutes,"[3]; 40° C., 30 minutes",did not change
same,crystal form after heating at 40° C. for 24 hours,"[3]; 40° C., 24 hours","crystallinity was reduced and XRPD pattern changed to a new form called ""F"""
same,crystal form after heating up to 190° C.,"[3]; up to 190° C., a few minutes","produced a new crystalline anhydrous form designated ""G"""
same,ΔH solution 88% DMSO/12% H2O,"[4]; 30° C., listed as D",-16.33 ± 1.61 J/g
same,ΔH solution DMSO at 30° C.,"[4]; 30° C., listed as D",-1.36 ± 0.42 J/g
same,thermodynamic stability,[4]; listed as D,"metastable with respect to ""I"""
same,crystal form after shaking in acetonitrile-water,[7]; acetonitrile with added water,"the final crystal form was also ""I"""
same,crystal form after stirring/shaking in acetonitrile,"[7]; acetonitrile, no added water","converted to a new crystal form (""I""); also recorded: changed to form ""I"""
same,% Weight Loss (Δ 30-150° C. by TGA),[1]; listed as D,12-14%
same,hydration state,[1]; listed as D,hydrated
same,solubility,"[5]; water, room temperature, Table I",10400 ± 700 µg/mL
same,crystal form after suspension in water,[6]; listed as D,"converted to form ""I"""
